From the NIST ThermoML archive (doi:10.1016/j.fluid.2014.11.020)
Numbers after ± are expanded uncertainties.

Test: activity coefficient (dimensionless); of the first substance listed, at infinite dilution; xn = mol fraction of the nth substance listed
Conditions: Liquid, Chromatography, x1 = 0

| Compound | activity coefficient (323.15 K) | activity coefficient (333.15 K) | activity coefficient (343.15 K) |
| --- | --- | --- | --- |
| C[N+](=O)[O-] [nitromethane] + CN(C)c1cc[n+](COCCCOC[n+]2ccc(N(C)C)cc2)cc1.O=S(=O)([N-]S(=O)(=O)C(F)(F)F)C(F)(F)F.O=S(=O)([N-]S(=O)(=O)C(F)(F)F)C(F)(F)F | 0.39 ± 0.03 | 0.39 ± 0.03 | 0.38 ± 0.03 |
| C[N+](=O)[O-] [nitromethane] + Cn1cc[n+](COCCCOC[n+]2ccn(C)c2)c1.N#C[N-]C#N.N#C[N-]C#N | 0.56 ± 0.04 | 0.56 ± 0.04 | 0.57 ± 0.04 |
| C[N+](=O)[O-] [nitromethane] + Cn1cc[n+](COCCCOC[n+]2ccn(C)c2)c1.O=S(=O)([N-]S(=O)(=O)C(F)(F)F)C(F)(F)F.O=S(=O)([N-]S(=O)(=O)C(F)(F)F)C(F)(F)F | 0.31 ± 0.03 | 0.31 ± 0.03 | 0.29 ± 0.03 |
| C[N+](=O)[O-] [nitromethane] + N#C[N-]C#N.N#C[N-]C#N.c1ccc(Cn2cc[n+](COCCCOC[n+]3ccn(Cc4ccccc4)c3)c2)cc1 | 0.86 ± 0.06 | 0.85 ± 0.05 | 0.87 ± 0.06 |
| CCCCCCCCC [nonane] + CCCCCCCCn1cc[n+](COCCC)c1C.N#C[N-]C#N | 14.9 ± 1 | 13.6 ± 0.93 | 13.1 ± 0.9 |
| CCCCCCCCC [nonane] + CCCCCCCCn1cc[n+](COCCC)c1C.O=S(=O)([N-]S(=O)(=O)C(F)(F)F)C(F)(F)F | 7.93 ± 0.54 | 7.42 ± 0.51 | 6.93 ± 0.47 |
| CCCCCCCCC [nonane] + CCCCCCCCn1cc[n+](COCCCOC[n+]2ccn(CCCCCCCC)c2C)c1C.N#C[N-]C#N.N#C[N-]C#N | 17.1 ± 1.2 | 15.8 ± 1.1 | 14.3 ± 0.98 |
| CCCCCCCCC [nonane] + CCCCCCCCn1cc[n+](COCCCOC[n+]2ccn(CCCCCCCC)c2C)c1C.O=S(=O)([N-]S(=O)(=O)C(F)(F)F)C(F)(F)F.O=S(=O)([N-]S(=O)(=O)C(F)(F)F)C(F)(F)F | 8.26 ± 0.56 | 7.45 ± 0.51 | 7.1 ± 0.48 |
| CCCCCCCCC [nonane] + CCCOC[n+]1ccc(N(C)C)cc1.O=S(=O)([N-]S(=O)(=O)C(F)(F)F)C(F)(F)F | 32.8 ± 2.2 | 30.6 ± 2.1 | 27.1 ± 1.9 |
| CCCCCCCCC [nonane] + CCCOC[n+]1ccn(C)c1.F[B-](F)(F)F | 553 ± 38 | 384 ± 26 | 337 ± 23 |
| CCCCCCCCC [nonane] + CCCOC[n+]1ccn(C)c1.N#C[N-]C#N | 263 ± 18 | 234 ± 16 | 197 ± 14 |
| CCCCCCCCC [nonane] + CCCOC[n+]1ccn(C)c1.O=S(=O)([N-]S(=O)(=O)C(F)(F)F)C(F)(F)F | 52.4 ± 3.6 | 45.9 ± 3.1 | 40.5 ± 2.8 |
| CCCCCCCCC [nonane] + CCCOC[n+]1ccn(Cc2ccccc2)c1.F[B-](F)(F)F | 179 ± 12 | 164 ± 11 | 126 ± 8.7 |
| CCCCCCCCC [nonane] + CCCOC[n+]1ccn(Cc2ccccc2)c1.N#C[N-]C#N | 110 ± 7.6 | 93.6 ± 6.4 | 76.2 ± 5.2 |
| CCCCCCCCC [nonane] + CCCOC[n+]1ccn(Cc2ccccc2)c1.O=S(=O)([N-]S(=O)(=O)C(F)(F)F)C(F)(F)F | 23.3 ± 1.6 | 19.1 ± 1.3 | 17.5 ± 1.2 |
| CCCCCCCCC [nonane] + CN(C)c1cc[n+](COCCCOC[n+]2ccc(N(C)C)cc2)cc1.O=S(=O)([N-]S(=O)(=O)C(F)(F)F)C(F)(F)F.O=S(=O)([N-]S(=O)(=O)C(F)(F)F)C(F)(F)F | 60.7 ± 4.2 | 52 ± 3.6 | 47.2 ± 3.2 |

| Compound | activity coefficient (323.15 K) | activity coefficient (333.15 K) | activity coefficient (343.15 K) |
| --- | --- | --- | --- |
| CCCCCCCCC [nonane] + Cn1cc[n+](COCCCOC[n+]2ccn(C)c2)c1.O=S(=O)([N-]S(=O)(=O)C(F)(F)F)C(F)(F)F.O=S(=O)([N-]S(=O)(=O)C(F)(F)F)C(F)(F)F | 105 ± 7.2 | 96.7 ± 6.6 | 72.4 ± 5 |
| CCCCCCCCC [nonane] + N#C[N-]C#N.N#C[N-]C#N.c1ccc(Cn2cc[n+](COCCCOC[n+]3ccn(Cc4ccccc4)c3)c2)cc1 | 335 ± 23 | 264 ± 18 | 226 ± 16 |
| CCCCCCCC [octane] + CCCCCCCCn1cc[n+](COCCC)c1C.N#C[N-]C#N | 11 ± 0.75 | 10.1 ± 0.69 | 9.94 ± 0.68 |
| CCCCCCCC [octane] + CCCCCCCCn1cc[n+](COCCC)c1C.O=S(=O)([N-]S(=O)(=O)C(F)(F)F)C(F)(F)F | 5.76 ± 0.39 | 5.48 ± 0.37 | 5.17 ± 0.35 |
| CCCCCCCC [octane] + CCCCCCCCn1cc[n+](COCCCOC[n+]2ccn(CCCCCCCC)c2C)c1C.N#C[N-]C#N.N#C[N-]C#N | 12.1 ± 0.82 | 11.4 ± 0.78 | 11.3 ± 0.77 |
| CCCCCCCC [octane] + CCCCCCCCn1cc[n+](COCCCOC[n+]2ccn(CCCCCCCC)c2C)c1C.O=S(=O)([N-]S(=O)(=O)C(F)(F)F)C(F)(F)F.O=S(=O)([N-]S(=O)(=O)C(F)(F)F)C(F)(F)F | 5.97 ± 0.41 | 5.45 ± 0.37 | 5.08 ± 0.35 |
| CCCCCCCC [octane] + CCCOC[n+]1ccc(N(C)C)cc1.O=S(=O)([N-]S(=O)(=O)C(F)(F)F)C(F)(F)F | 22.2 ± 1.5 | 20.5 ± 1.4 | 17.7 ± 1.2 |
| CCCCCCCC [octane] + CCCOC[n+]1ccn(C)c1.F[B-](F)(F)F | 292 ± 20 | 213 ± 15 | 182 ± 13 |
| CCCCCCCC [octane] + CCCOC[n+]1ccn(C)c1.N#C[N-]C#N | 155 ± 11 | 135 ± 9.2 | 112 ± 7.7 |
| CCCCCCCC [octane] + CCCOC[n+]1ccn(C)c1.O=S(=O)([N-]S(=O)(=O)C(F)(F)F)C(F)(F)F | 34.1 ± 2.3 | 29.7 ± 2 | 26.4 ± 1.8 |
| CCCCCCCC [octane] + CCCOC[n+]1ccn(Cc2ccccc2)c1.N#C[N-]C#N | 70.1 ± 4.8 | 61.5 ± 4.2 | 57.8 ± 4 |
| CCCCCCCC [octane] + CCCOC[n+]1ccn(Cc2ccccc2)c1.O=S(=O)([N-]S(=O)(=O)C(F)(F)F)C(F)(F)F | 16.1 ± 1.1 | 12.9 ± 0.88 | 12.5 ± 0.85 |
| CCCCCCCC [octane] + CN(C)c1cc[n+](COCCCOC[n+]2ccc(N(C)C)cc2)cc1.O=S(=O)([N-]S(=O)(=O)C(F)(F)F)C(F)(F)F.O=S(=O)([N-]S(=O)(=O)C(F)(F)F)C(F)(F)F | 37.9 ± 2.6 | 34.5 ± 2.4 | 30 ± 2 |
| CCCCCCCC [octane] + Cn1cc[n+](COCCCOC[n+]2ccn(C)c2)c1.O=S(=O)([N-]S(=O)(=O)C(F)(F)F)C(F)(F)F.O=S(=O)([N-]S(=O)(=O)C(F)(F)F)C(F)(F)F | 60.4 ± 4.1 | 60.6 ± 4.2 | 38.4 ± 2.6 |
| CCCC(C)=O [pentan-2-one] + CCCCCCCCn1cc[n+](COCCC)c1C.N#C[N-]C#N | 0.95 ± 0.06 | 0.96 ± 0.06 | 0.98 ± 0.06 |
| CCCC(C)=O [pentan-2-one] + CCCCCCCCn1cc[n+](COCCC)c1C.O=S(=O)([N-]S(=O)(=O)C(F)(F)F)C(F)(F)F | 0.48 ± 0.04 | 0.48 ± 0.04 | 0.48 ± 0.04 |
